In paper PMC12389586, “Anticancer Activity of Paclitaxel-Loaded Mesoporous Silica Nanoparticles in B16F10 Melanoma-Bearing Mice” (Pharmaceutics, 2025):

Key:
β-tubulin = test: Confocal staining of β-tubulin and nuclei; format: cell-based; settings: B16F10 cells, 24 h; PTX 25 µg/mL or equivalent, CUR 200 µg/mL, TPGS 600 µg/mL, SMB7 200 µg/mL
Protocol: B16F10 cells were seeded at a density of 4 × 10^4 cells per well in a 24-well plate and cultured until a confluency of 80% was reached. Once the desired confluency was achieved, the culture medium was replaced with fresh media containing the following respective treatments: control, 200 μg/mL of SMB7, 200 μg/mL of curcumin, 25 μg/mL of PTX, PS (equivalent to 25 μg/mL PTX), PS with curcumin (equivalent to 25 μg/mL PTX + 200 μg/mL curcumin), and PS with TPGS (equivalent to 25 μg/mL PTX + 600 μg/mL TPGS).
Cells were incubated post-treatment for 24 h and then fixed and stained to visualize intracellular structures. DAPI was used for DNA staining to highlight nuclear morphology, and goat anti-Mouse IgG conjugated with FSD 594 was employed for β-tubulin staining to observe microtubule organization. As PTX primarily acts by stabilizing microtubules, fluorescence images were acquired using an LSM700 confocal laser scanning microscope (Carl Zeiss GmbH, Oberkochen, Germany). Confocal images were acquired at 100 × magnification to enhance the visualization of DNA and β-tubulin structures, enabling the assessment of PTX-induced cytoskeletal disruption and apoptosis-related nuclear changes.

B16F10 spheroids = test: Cytotoxicity and PTX accumulation in 3D cultured spheroid; format: cell-based; settings: for spheroid growth / radius: 5 days, PTX 25 µg/mL or equivalent, CUR 200 µg/mL, TPGS 600 µg/mL, SMB7 200 µg/mL
Protocol: B16F10 cells were seeded at a density of 3 × 10^5 cells per well in an ultra-low attachment 96-well plate to facilitate spheroid formation. Immediately after seeding, the plate was centrifuged at […] for 15 min to promote cell aggregation. Following centrifugation, the spheroids were allowed to stabilize for 24 h before drug treatment. The spheroids were treated with the following conditions and grown for 5 days: control, 200 μg/mL of SMB7, 200 μg/mL of curcumin, 25 μg/mL of PTX, PS (equivalent to 25 μg/mL PTX), PS with curcumin (equivalent to 25 μg/mL PTX + 200 μg/mL curcumin), and PS with TPGS (equivalent to 25 μg/mL PTX + 600 μg/mL TPGS).
During the culture period, the spheroid radius was measured daily to assess tumor growth inhibition across different treatment groups. After five days, the spheroids were harvested, disrupted into a single-cell suspension, and analyzed for intracellular PTX and curcumin concentrations using LC–MS/MS. Additionally, the culture medium was collected from each well and analyzed to quantify the remaining extracellular concentrations of PTX and curcumin, providing further insights into drug uptake and retention within the spheroids.

[1] = In vitro drug release test (dialysis pouch); format: physicochemical; settings: over 48 h; SBF pH 7.4, release medium SBF + 0.5% Tween 80
Protocol: The in vitro drug release of PTX from the formulation was measured as follows: PTX and PS (all containing 2 mg PTX) were placed in the cellulose membrane pouch (Snakeskin^TM Dialysis Tubing 10,000 MWCO; Thermo Fisher Scientific Inc.; Waltham, MA, USA), and 5 mL of SBF (pH 7.4) was added inside the cellulose membrane pouch. The cellulose membrane pouch was put into 50 mL of SBF containing 0.5% Tween 80 in a 250 mL beaker and shaken at 100 rpm in a dual-motion shaker (Finepcr; Gunpo-si, Republic of Korea). Samples (100 μL aliquots) were collected for 48 h, and then diluted 100-fold with mobile phase and injected into the LC-MS/MS system to measure the PTX concentration.
In this study, PS in 5 mL SBF was placed in a dialysis pouch, while the exterior release medium consisted of 50 mL of SBF + 0.5% Tween 80. This large external volume and surfactant content allowed the PTX released from the pouch to diffuse into the external medium and remain dissolved.

B16F10 cells [2] = test: Apoptosis analysis by flow cytometry (Annexin V); format: cell-based; settings: 24 h; equivalent to 25 μg/mL PTX (+200 μg/mL CUR, +600 μg/mL TPGS)
Protocol: B16F10 cells were seeded at a density of 8 × 10^4 cells in a cell culture dish and cultured until a confluency of 80% was reached. Upon reaching the desired confluency, the culture medium was aspirated and replaced with fresh medium containing one of the following treatments: control, PTX (25 μg/mL), PS (equivalent to 25 μg/mL PTX), PSC (equivalent to 25 μg/mL PTX + 200 μg/mL curcumin), and PSCT (equivalent to 25 μg/mL PTX + 200 μg/mL curcumin + 600 μg/mL TPGS).
After 24 h of treatment, the culture supernatant was collected into a 15 mL conical tube. Cells were then detached using 1.5 mL of trypsin, and the resulting cell suspension—including detached cells and debris—was combined with the previously collected medium in the same tube. The samples were centrifuged at 1000 rpm for 3 min, and the supernatant was carefully discarded. The cell pellet was resuspended in 1 mL of DMEM supplemented with 10% FBS and 1% penicillin–streptomycin. Subsequently, 100 μL of the Muse Annexin V and Dead Cell kit (Cytek Biosciences Inc., Fremont, CA, USA) was added to the cell suspension, and the samples were incubated at room temperature in the dark for 20 min. Apoptosis and cell viability were then assessed using the Guava® Muse® Cell Analyzer (Cytek Biosciences Inc., Fremont, CA, USA).

[3] = Biodistribution in B16F10 melanoma-bearing mice; format: in vivo, C57BL/6 mice; settings: C57BL/6, mouse, subcutaneous, heart, lung, kidney, pancreas, liver and tumor tissues, read-out: PTX tissue concentration relative to plasma
Protocol: After the final injection, the mice from PTX + CUR, PSC, and PSCT groups were randomly subdivided into two time points (n = 5 for each subgroup; 2 h and 8 h post-administration) for pharmacokinetic and biodistribution analyses. At the designated time points (0.25, 1, and 2 h from the 2 h group; 0.5, 4, and 8 h from the 8 h group), blood samples (approximately 80 µL) were collected from the retro-orbital plexus of mice. For the PTX and CUR analyses, 30 µL of plasma aliquots were stored at −80 °C. At 2 h, the mice were anesthetized, and the organs (heart, lung, liver, kidney, pancreas, and tumor) were harvested, weighed, and homogenized using a MM400 Laboratory Ball Mixer Mill (Retsch, Haan, Germany). Aliquots (50 µL) of 20% tissue homogenates prepared using 10% MeOH were stored at −80 °C for subsequent analyses. […]
The biodistribution of PTX in various mouse tissues was quantified and expressed as a percentage of the injected dose per gram of tissue (%ID/g). […] The following formula was used to calculate the drug concentration in the tissue, which is measured (e.g., ng), normalized to the total injected dose, and further corrected based on the weight of the harvested tissue to standardize drug accumulation across different organs as follows: %ID/g=Drug amount in each organmg/Injected Dose mg×100×1/Organ weight (g) .

B16F10 cells [4] = test: Cell viability (MTT assay); format: cell-based; settings: Mus musculus, B16-F10, 48 h exposure, 0–1000 nM PTX or equivalent
Protocol: B16F10 cells were seeded at a density of 4 × 10^4 cells per well in a 96-well plate and incubated at 37 °C in a 5% CO2 atmosphere for 24 h to allow cell attachment and stabilization before drug administration. After 24 h, the medium was replaced with fresh culture media containing various PTX formulations (i.e., PTX, PS, PS with CUR, PS with TPGS, and PS with verapamil) at increasing concentrations (0, 10, 20, 50, 100, 200, 500, and 1000 nM) of PTX or its equivalent amount.
After 48 h of drug exposure, MTT reagent (0.5 mg/mL in PBS, 15 μL) was added to each well, followed by an additional 4 h incubation to allow mitochondrial dehydrogenase enzymes in viable cells to reduce MTT into insoluble formazan crystals. The resulting formazan was then solubilized using 150 μL DMSO, and the absorbance was measured at 592 nm using an ultraviolet (UV) spectrophotometer. Cell viability was calculated relative to the untreated control group. Data were fitted using the inhibitory effect model v=Emax(1−[I]/IC50+[I]) . Emax and IC50 represent uninhibited cell viability (%) and the concentration of PTX (nM) at which half-maximal inhibition occurs. [I] represents the concentration of PTX.

[5] = after 5 days of treatment, equivalent to 25 μg/mL PTX

drug release [1] [%]	Kp at 2 h [3]	IC50 (B16F10 cells [4]) [nM]	SMILES	β-tubulin expression (microtubule integrity) (β-tubulin)	spheroid growth / radius (B16F10 spheroids)	early apoptosis (B16F10 cells [2]) [%]	late apoptosis (Late Apop./Dead) (B16F10 cells [2]) [%]	total apoptosis rate (B16F10 cells [2]) [%]	Incorporated PTX (B16F10 spheroids; [5]) [%]	PTX concentration (intracellular accumulation in spheroids) (B16F10 spheroids; [5]) [µg/mL]
–	–	–	COc1cc(/C=C/C(=O)CC(=O)/C=C/c2ccc(O)c(OC)c2)ccc1O [CUR, Curcumin]	moderate reduction in β-tubulin expression	significantly suppressed the tumor growth of B16F10 spheroids	–	–	–	–	–
6.58	> 100	283	CC(=O)O[C@H]1C(=O)[C@@]2(C)[C@H]([C@H](OC(=O)c3ccccc3)[C@]3(O)C[C@H](OC(=O)[C@H](O)[C@@H](NC(=O)c4ccccc4)c4ccccc4)C(C)=C1C3(C)C)[C@]1(OC(C)=O)CO[C@@H]1C[C@@H]2O [PTX, Paclitaxel]	pronounced decrease in β-tubulin intensity	significantly suppressed the tumor growth of B16F10 spheroids	11.5	9.8	21.3	20.3	5.09 ± 0.16
